Reference: PMC11985001, “Melatonin rescues cell respiration impaired by hypoxia/reoxygenation in aortic endothelial cells and affects the mitochondrial bioenergetics targeting the F1FO-ATPase” (Redox Biology, 2025)

What was measured:
[1] = target: T1, F1 domain of mitochondrial F1FO-ATPase (F1-ATPase) (Sus scrofa, UniProt K7GLT8+P80021); test: ATP hydrolysis (Pi release) with partially purified F1, […] NBD-Cl; format: biochemical
T1 construct: gene ATP5F1B; partially purified F1 domain from swine heart mitochondria; with other subunits of the F1 complex
T1 sequence (K7GLT8 89-570): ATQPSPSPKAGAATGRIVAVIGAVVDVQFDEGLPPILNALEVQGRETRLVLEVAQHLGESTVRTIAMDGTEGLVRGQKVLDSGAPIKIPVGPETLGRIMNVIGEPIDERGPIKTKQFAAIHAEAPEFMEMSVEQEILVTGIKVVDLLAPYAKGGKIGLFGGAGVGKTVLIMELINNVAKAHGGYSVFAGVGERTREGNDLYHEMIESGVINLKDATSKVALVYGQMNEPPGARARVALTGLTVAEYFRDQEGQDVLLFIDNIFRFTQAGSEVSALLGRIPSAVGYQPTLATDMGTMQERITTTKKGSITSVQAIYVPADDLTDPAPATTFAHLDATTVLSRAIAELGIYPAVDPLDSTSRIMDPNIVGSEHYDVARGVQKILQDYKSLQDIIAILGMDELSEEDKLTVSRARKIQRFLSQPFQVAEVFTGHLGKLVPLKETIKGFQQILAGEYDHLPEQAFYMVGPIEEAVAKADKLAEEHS
T1 sequence (P80021 44-553): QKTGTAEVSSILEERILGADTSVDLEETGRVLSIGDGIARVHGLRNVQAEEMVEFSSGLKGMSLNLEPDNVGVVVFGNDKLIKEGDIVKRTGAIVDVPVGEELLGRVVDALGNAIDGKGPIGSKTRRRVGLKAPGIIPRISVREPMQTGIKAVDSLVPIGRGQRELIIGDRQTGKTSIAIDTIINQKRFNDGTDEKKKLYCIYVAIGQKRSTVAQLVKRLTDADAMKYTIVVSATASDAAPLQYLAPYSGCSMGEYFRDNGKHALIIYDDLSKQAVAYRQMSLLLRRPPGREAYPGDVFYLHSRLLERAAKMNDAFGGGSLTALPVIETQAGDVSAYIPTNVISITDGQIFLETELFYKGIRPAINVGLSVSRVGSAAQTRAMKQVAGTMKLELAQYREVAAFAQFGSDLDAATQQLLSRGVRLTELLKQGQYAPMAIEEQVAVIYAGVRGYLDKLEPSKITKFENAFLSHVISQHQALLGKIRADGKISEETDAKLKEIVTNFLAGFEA
T1 sequence (A0A286ZYL7 23-168 partner): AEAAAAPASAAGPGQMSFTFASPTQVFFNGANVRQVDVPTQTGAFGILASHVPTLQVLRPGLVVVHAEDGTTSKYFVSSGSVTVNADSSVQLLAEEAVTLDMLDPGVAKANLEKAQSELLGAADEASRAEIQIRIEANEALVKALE
T1 sequence (A5GFX4 2-51 partner): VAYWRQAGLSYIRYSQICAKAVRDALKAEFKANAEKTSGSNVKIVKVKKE

[2] = target: T2, F1 domain of mitochondrial F1FO-ATPase (Ca2+-activated F1-ATPase) (Sus scrofa, UniProt K7GLT8+P80021); test: ATP hydrolysis (Pi release) with partially purified F1 at […] melatonin; IC50 from the mitochondrial Ca2+-activated F1FO-ATPase (K'i […]); format: biochemical
T2 construct: gene ATP5F1B; native whole F1FO-ATPase in frozen-thawed pig heart mitochondria; not purified F1
T2 sequence (K7GLT8 89-570): as the sequence (K7GLT8 89-570) above
T2 sequence (P80021 44-553): as the sequence (P80021 44-553) above
T2 sequence (A0A286ZYL7 23-168 partner): as the sequence (A0A286ZYL7 23-168 partner) above
T2 sequence (A5GFX4 2-51 partner): as the sequence (A5GFX4 2-51 partner) above
T2 sequence (Q2EN81 24-213 partner): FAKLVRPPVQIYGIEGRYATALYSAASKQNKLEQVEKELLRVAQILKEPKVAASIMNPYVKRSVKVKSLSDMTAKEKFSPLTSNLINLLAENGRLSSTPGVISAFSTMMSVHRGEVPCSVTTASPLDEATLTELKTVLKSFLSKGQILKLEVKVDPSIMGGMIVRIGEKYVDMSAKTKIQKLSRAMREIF
T2 sequence (Q35915 whole entry partner, the tested form may be a part): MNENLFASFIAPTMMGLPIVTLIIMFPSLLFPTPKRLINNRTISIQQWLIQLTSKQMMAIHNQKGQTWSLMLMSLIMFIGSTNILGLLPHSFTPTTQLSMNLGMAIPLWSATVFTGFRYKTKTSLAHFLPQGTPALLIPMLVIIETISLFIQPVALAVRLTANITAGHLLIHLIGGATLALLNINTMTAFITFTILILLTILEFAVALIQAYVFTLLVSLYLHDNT

Row | Compound | ATP hydrolysis (Pi release) with partially purified F1, 75 μM NBD-Cl [1] | IC50 [2]
1 | O=[N+]([O-])c1ccc(Cl)c2nonc12 [NBD-Cl] | F1-ATPase activity was insensitive to oligomycin and was inhibited by NBD-Cl. | –
2 | COc1ccc2[nH]cc(CCNC(C)=O)c2c1 [melatonin] | – | 6.63 ± 2.33 mM
